Assay results as given in the NIST ThermoML archive (doi:10.1016/j.tca.2012.04.001).

Tests used:
[1] = xn = mol fraction of the nth substance listed; details: 101 kPa, Liquid, Vibrating tube method
[2] = 101.33 kPa, Liquid, Vibrating tube method

CCCCCl [1-chlorobutane] + CCC(C)=O
mass density [kg/m3], [1]
Details	288.15 K	303.15 K	313.15 K
x1 = 0.0603	815.629	799.819	789.16
x1 = 0.102	819.225	803.373	792.657
x1 = 0.1968	827.479	811.507	800.7
x1 = 0.2964	835.868	819.774	808.881
x1 = 0.4017	844.704	828.487	817.514
x1 = 0.4502	848.687	832.432	821.402
x1 = 0.5138	853.847	837.516	826.466
x1 = 0.5467	856.509	840.156	829.081
x1 = 0.6451	864.357	847.919	836.788
x1 = 0.6988	868.609	852.133	840.975
x1 = 0.7994	876.429	859.878	848.676
x1 = 0.8296	878.808	862.217	850.983
x1 = 0.9037	884.435	867.832	856.591
x1 = 0.9336	886.734	870.09	858.856

CCC(C)=O [butanone]
[2]
Details	mass density [kg/m3]
288.15 K	810.328
303.15 K	794.629
313.15 K	784.008

CCCC(C)=O [pentan-2-one] + CCCCCCC
mass density [kg/m3], [1]
Details	288.15 K	303.15 K	313.15 K
x2 = 0.0562	801.549	787.145	777.44
x2 = 0.1047	793.314	778.964	769.309
x2 = 0.1946	778.848	764.618	755.031
x2 = 0.2463	770.971	756.828	747.271
x2 = 0.3006	763.126	748.98	739.521
x2 = 0.312	761.486	747.38	737.93
x2 = 0.3664	754.046	740.019	730.578
x2 = 0.4233	746.601	732.618	723.231
x2 = 0.4921	738.067	724.274	714.996
x2 = 0.5566	730.511	716.874	707.632
x2 = 0.6001	725.625	712.061	702.877
x2 = 0.7003	715.045	701.616	692.572
x2 = 0.7526	709.893	696.524	687.536
x2 = 0.8233	703.177	689.947	681.074
x2 = 0.8918	697.119	684.045	675.297
x2 = 0.95	692.408	679.462	670.763

CCCCCl [1-chlorobutane] + CCCCCCC
mass density [kg/m3], [1]
Details	288.15 K	303.15 K	313.15 K
x1 = 0.0407	694.279	681.416	672.687
x1 = 0.0779	699.652	686.682	677.87
x1 = 0.1497	710.416	697.174	688.219
x1 = 0.2169	720.981	707.546	698.49
x1 = 0.2496	726.25	712.73	703.568
x1 = 0.2565	727.4	713.798	704.618
x1 = 0.2999	734.714	720.999	711.752
x1 = 0.363	745.784	731.835	722.416
x1 = 0.4023	752.916	738.839	729.286
x1 = 0.5009	771.635	757.206	747.426
x1 = 0.5052	772.539	758.088	748.294
x1 = 0.5987	791.61	776.768	766.715
x1 = 0.7138	817.052	801.757	791.398
x1 = 0.7493	825.378	809.928	799.44
x1 = 0.8009	837.92	822.176	811.608
x1 = 0.8875	860.284	844.077	833.14
x1 = 0.9476	876.694	860.27	849.181
